The values below come from US20100120858A1, “Piperidine Derivatives” (Pfizer Inc., priority 2006, published 2010).

The target of series [1] is human norepinephrine transporter (Homo sapiens, UniProt P23975). As to the kind of experiment: Human norepinephrine (hNET) receptor binding, [125I]-RTI-55. As to conditions: membranes of HEK-293 cells transfected with human norepinephrine transporter cDNA; 50 pM [125I]-RTI-55; IC50 converted by Cheng-Prusoff. As to the method:
Cell pastes of human embryonic kidney 293 (HEK-293) cells transfected with a human norepinephrine transporter cDNA were prepared. The cell pastes were resuspended in 400 to 700 mL of Krebs-N-2-hydroxyethylpiperazine-N′-2-ethanesulfonic acid (HEPES) assay buffer (25 mM HEPES, 122 mM NaCl, 3 mM KCl, 1.2 mM MgSO4, 1.3 mM CaCl2, and 11 mM glucose, pH 7.4) with a Polytron homogenizer at setting 7 for 30 seconds. Aliquots of membranes (5 mg/mL protein) were stored in liquid nitrogen until used.
The binding assay was set up in Beckman deep-well polypropylene plates with a total volume of 250 μL containing: test compound (concentration of 10^−5M to 10^−12M), cell membranes, and 50 pM [^125I]-RTI-55 ([^125I]-3 beta-(4-iodophenyl)tropan-2 beta-carboxylic acid methyl ester) (Perkin Elmer, NEX-272; specific activity 2200 Ci/mmol). The reaction was incubated by gentle agitation for 90 minutes at room temperature and was terminated by filtration through Whatman GF/C filter plates using a Brandel 96-well plate harvester. Scintillation fluid (100 μL) was added to each well, and bound [^125I]-RTI-55 was determined using a Wallac Trilux Beta Plate Counter. Test compounds were run in duplicate, and specific binding was defined as the difference between binding in the presence and absence of 10 μM desipramine.
Excel and GraphPad Prism software were used for data calculation and analysis. IC50 values were converted to Ki values using the Cheng-Prusoff equation. The Ki values (nM) for the hNET are reported below in Table 13.

The target in series [2] is human serotonin transporter (Homo sapiens, UniProt P31645). As to the kind of experiment: Human serotonin (hSERT) receptor binding, [125I]-RTI-55. Conditions: membranes of HEK-293 cells transfected with human serotonin transporter cDNA, IC50 converted by Cheng-Prusoff. As to the method: Cell pastes of HEK-293 cells transfected with a human serotonin transporter cDNA were prepared. The cell pastes were resuspended in 400 to 700 ml of Krebs-HEPES assay buffer (25 mM HEPES, 122 mM NaCl, 3 mM KCl, 1.2 mM MgSO4, 1.3 mM CaCl2, and 11 mM glucose, pH 7.4) with a Polytron homogenizer at Setting 7 for 30 seconds. Aliquots of membranes (˜2.5 mg/mL protein) were stored in liquid nitrogen until used.
human serotonin transporter, sequence (P31645 whole entry): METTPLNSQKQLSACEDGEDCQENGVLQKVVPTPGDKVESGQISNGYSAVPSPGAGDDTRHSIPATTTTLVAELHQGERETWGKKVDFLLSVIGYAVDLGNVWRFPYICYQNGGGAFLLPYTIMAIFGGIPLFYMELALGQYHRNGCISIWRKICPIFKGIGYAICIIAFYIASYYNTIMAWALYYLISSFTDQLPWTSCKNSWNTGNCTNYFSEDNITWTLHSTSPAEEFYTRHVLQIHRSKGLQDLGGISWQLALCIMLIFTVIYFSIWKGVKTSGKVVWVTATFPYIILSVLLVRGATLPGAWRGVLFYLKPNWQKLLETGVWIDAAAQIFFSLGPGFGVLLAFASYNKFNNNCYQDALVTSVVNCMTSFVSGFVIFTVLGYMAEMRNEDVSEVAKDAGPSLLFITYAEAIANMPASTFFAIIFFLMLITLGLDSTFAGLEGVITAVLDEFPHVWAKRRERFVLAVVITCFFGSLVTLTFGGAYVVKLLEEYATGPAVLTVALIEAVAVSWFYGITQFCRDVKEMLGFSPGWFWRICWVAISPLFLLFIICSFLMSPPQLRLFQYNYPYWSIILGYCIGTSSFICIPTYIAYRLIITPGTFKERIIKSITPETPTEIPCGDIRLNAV
Assays were set up in FlashPlates pre-coated with 0.1% polyethyleneimine (PEI) in a total volume of 250 μL containing: test compound (concentration 10^−5M to 10^−12M), cell membranes, and […] [^125I]-RTI-55 (Perkin Elmer, NEX-272; specific activity 2200 Ci/mmol). The reaction was incubated and gently agitated for 90 minutes at room temperature, and terminated by removal of assay volume. Plates were covered, and bound [^125I]-RTI-55 was determined using a Wallac Trilux Beta Plate Counter. Test compounds were run in duplicate, and specific binding was defined as the difference between binding in the presence and absence of 10 μM citalopram.
Excel and GraphPad Prism software were used for data calculation and analysis. IC50 values were converted to Ki values using the Cheng-Prusoff equation.

Where a name gives a salt, the structure may show the parent alone.

By melting point is commonly meant the temperature of the solid-liquid transition. Broadly, the Ki is the dissociation constant of the complex between target and ligand, obtained from inhibition or displacement. Read a high Ki as lower affinity.

human norepinephrine transporter, sequence (P23975 whole entry): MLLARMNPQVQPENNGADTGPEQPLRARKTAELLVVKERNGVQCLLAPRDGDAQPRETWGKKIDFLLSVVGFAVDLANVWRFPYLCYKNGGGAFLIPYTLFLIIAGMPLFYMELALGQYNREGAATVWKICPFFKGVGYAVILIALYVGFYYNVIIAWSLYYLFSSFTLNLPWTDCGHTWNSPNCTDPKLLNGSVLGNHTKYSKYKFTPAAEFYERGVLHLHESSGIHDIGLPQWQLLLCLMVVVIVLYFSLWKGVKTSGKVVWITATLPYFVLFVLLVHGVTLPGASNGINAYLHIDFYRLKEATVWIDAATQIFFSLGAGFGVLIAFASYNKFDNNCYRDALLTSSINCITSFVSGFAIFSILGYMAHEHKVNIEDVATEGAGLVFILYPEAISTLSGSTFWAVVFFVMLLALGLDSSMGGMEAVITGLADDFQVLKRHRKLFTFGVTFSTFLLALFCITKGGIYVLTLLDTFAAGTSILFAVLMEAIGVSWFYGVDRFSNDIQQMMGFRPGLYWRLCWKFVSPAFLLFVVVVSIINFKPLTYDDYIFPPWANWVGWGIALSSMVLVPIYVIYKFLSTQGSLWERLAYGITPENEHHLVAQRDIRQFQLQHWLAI

`Fc1ccc(Oc2ncccc2OC[C@@H]2CCCNC2)cc1.O=C(O)/C=C/C(=O)O` [Example 56, (R)-2-(4-fluoro-phenoxy)-3-(piperidin-3-ylmethoxy)-pyridine fumaric acid]: the melting point was 172 to 173 °C. On the same count and under the same terms, in the case of `CCOc1ncccc1OC(c1ccccc1)C1CCCNC1` (single isomer, unassigned; stereoisomer a) (as salt: fumaric acid salt) [Example 90, 2-ethoxy-3-[((R or S)-phenyl)-((S)-piperidin-3-yl)-methoxy]-pyridine fumaric acid, stereoisomer A] it was 159 to 161 °C; in that of `Fc1ccc(Oc2ncccc2OC(c2ccccc2)C2CCCNC2)cc1` (single isomer, unassigned; stereoisomer b) (as salt: fumaric acid salt) [Example 89, 2-(4-fluoro-phenoxy)-3-[((R or S)-phenyl)-((S)-piperidin-3-yl)-methoxy]-pyridine fumaric acid, stereoisomer B], 150 to 152 °C. Turning to `COCCOc1ccccc1OC(C)(C)[C@H]1CCCNC1` [Example 118, (S)-3-{1-[2-(2-methoxy-ethoxy)-phenoxy]-1-methyl-ethyl}-piperidine fumaric acid], the inhibition constant Ki in series [1] is 38 nM; in series [2], 2500 nM. The matching figures for `Cc1ccc(OC[C@H]2CCCNC2)c(Oc2ccc(Cl)cc2)n1` [Example 13, (S)-2-(4-chloro-phenoxy)-6-methyl-3-(piperidin-3-ylmethoxy)-pyridine fumaric acid]: 8.9 nM and 140 nM.

As to `Cc1ccc(OC[C@H]2CCCNC2)c(Oc2cccc3c2CCCC3)n1` [Example 19, (S)-6-methyl-3-(piperidin-3-ylmethoxy)-2-(5,6,7,8-tetrahydronaphthalen-1-yloxy)-pyridine fumaric acid], the Ki amounted to 86 nM in series [1] and 1900 nM in series [2].

In the case of `C[C@H](Oc1ccccc1OC1CCCCC1)[C@H]1CCCNC1` [Example 111, (S)-3-[(S)-1-(2-cyclohexyloxy-phenoxy)-ethyl]-piperidine oxalic acid], the Ki was 5 nM in series [1] and 1800 nM in series [2].

For the molecule `CC[C@H](Oc1cccnc1Oc1ccc(F)cc1)[C@H]1CCCNC1` [Example 85, (S,S)-2-(4-fluoro-phenoxy)-3-(1-piperidin-3-yl-propoxy)-pyridine fumaric acid], the Ki stood at 5 nM in series [1] and 2030 nM in series [2]. As for `CCOc1ncccc1OC[C@H]1CCCNC1` [Example 79, (S)-2-ethoxy-3-(piperidin-3-ylmethoxy)-pyridine fumaric acid], the Ki in series [1] was 108 nM; in series [2], over 10000 nM. On to `COc1ccc(OC[C@H]2CCCNC2)c(Oc2ccc(Cl)cc2OC)c1` [Example 32, (S)-3-[2-(4-chloro-2-methoxy-phenoxy)-4-methoxy-phenoxymethyl]-piperidine fumaric acid], for which the Ki in series [1] turned out to be 46 nM; in series [2] it was 120 nM.

For `c1cnc(OC2CCCCC2)c(OC[C@H]2CCCNC2)c1` [Example 81, (S)-2-cyclohexyloxy-3-(piperidin-3-ylmethoxy)-pyridine fumaric acid], the values for the Ki in series [1] and in series [2] were 84 nM and 6130 nM, respectively. Regarding `N#Cc1ccc(Oc2ncccc2OC[C@H]2CCCNC2)cc1C#N` [Example 58, (S)-4-[3-(piperidin-3-ylmethoxy)-pyridin-2-yloxy]-phthalonitrile fumaric acid], the inhibitory constant (Ki) in series [1] is 1200 nM; in series [2] it was 3990 nM.

As for `COc1cccc(F)c1Oc1cc(Cl)ccc1OC[C@H]1CCCNC1` [Example 40, (S)-3-[4-chloro-2-(2-fluoro-6-methoxy-phenoxy)-phenoxymethyl]-piperidine fumaric acid], the Ki is 7.5 nM in series [1] and 14 nM in series [2].

With `CCOc1ccccc1OC(c1ccccc1)[C@H]1CCCNC1` (mixture of isomers) [Example 106, (S)-3-[(2-ethoxy-phenoxy)-(R,S)-phenyl-methyl]-piperidine fumaric acid], the Ki in series [1] is 7 nM; in series [2], 430 nM.

With `COc1ccc(Oc2nc(C)ccc2OC[C@H]2CCCNC2)c(Cl)c1` [Example 26, (S)-2-(2-chloro-4-methoxy-phenoxy)-6-methyl-3-(piperidin-3-ylmethoxy)-pyridine fumaric acid], the Ki in series [1] stood at 18 nM; in series [2], 860 nM. The matching figures for `COCCOc1ccccc1O[C@@H](C)[C@H]1CCCNC1` [Example 113, (S)-3-{(S)-1-[2-(2-methoxy-ethoxy)-phenoxy]-ethyl}-piperidine hydrochloride]: 17 nM and 3600 nM. In the case of `Cc1ccc(OC[C@H]2CCCNC2)c(Oc2ccccc2Cl)n1` [Example 7, (S)-2-(2-chloro-phenoxy)-6-methyl-3-(piperidin-3-ylmethoxy)-pyridine fumaric acid], the inhibition constant (Ki) in series [1] was 2.7 nM; in series [2], 350 nM. For `CC(C)COc1ncccc1OC(c1ccccc1)[C@H]1CCCNC1` (single isomer, unassigned; stereoisomer a) [Example 92, 2-isobutoxy-3-[((R or S)-phenyl)-((S)-piperidin-3-yl)-methoxy]-pyridine fumaric acid, stereoisomer A] the same measures were 29 nM and 140 nM. As for `Fc1ccc(Oc2ncccc2OC[C@H]2CCCNC2)c(F)c1` [Example 54, (S)-2-(2,4-difluoro-phenoxy)-3-(piperidin-3-ylmethoxy)-pyridine fumaric acid], the values for the Ki in series [1] and in series [2] were 3 nM and 2700 nM, respectively. In the case of `Cc1ccc(OC[C@H]2CCCNC2)c(Oc2c(F)cccc2F)n1` [Example 42, (S)-2-(2,6-difluoro-phenoxy)-6-methyl-3-(piperidin-3-ylmethoxy)-pyridine hydrochloride], the inhibitory constant (Ki) in series [1] came to 3.6 nM; in series [2], 110 nM. Regarding `CCOc1cccc(F)c1OC[C@H]1CCCNC1` [Example 105, (S)-3-(2-ethoxy-6-fluoro-phenoxymethyl)-piperidine fumaric acid], the figures for the Ki in series [1] and in series [2] were 32 nM and 2800 nM, respectively.

Take `Cc1ccc(OC[C@H]2CCCNC2)c(Oc2ccc(Cl)c(Cl)c2)n1` [Example 17, (S)-2-(3,4-dichloro-phenoxy)-6-methyl-3-(piperidin-3-ylmethoxy)-pyridine fumaric acid]: the Ki in series [1] came out at 12 nM; in series [2], 63 nM.

For `Fc1ccc(Oc2cccc(F)c2OC[C@H]2CCCNC2)cc1` [Example 96, (S)-3-[2-fluoro-6-(4-fluoro-phenoxy)-phenoxymethyl]-piperidine fumaric acid], the results for the inhibition constant Ki in series [1] and in series [2] were 1 nM and 530 nM, respectively. Take `CCOc1ccccc1O[C@@H](C)[C@H]1CCCNC1` [Example 107, (S)-3-[(S)-1-(2-ethoxy-phenoxy)-ethyl]-piperidine]: the Ki worked out at 7 nM in series [1] and 2700 nM in series [2]. The matching figures for `COc1ccc(Oc2nc(C)ccc2OC[C@H]2CCCNC2)c(F)c1` [Example 30, (S)-2-(2-fluoro-4-methoxy-phenoxy)-6-methyl-3-(piperidin-3-ylmethoxy)-pyridine fumaric acid]: 15 nM and 230 nM. As to `Cc1ccc(OC[C@H]2CCCNC2)c(Oc2c(F)ccc(F)c2F)n1` [Example 49, (S)-6-methyl-3-(piperidin-3-ylmethoxy)-2-(2,3,6-trifluoro-phenoxy)-pyridine hydrochloride], the results for the Ki in series [1] and in series [2] were 6.1 nM and 25 nM, respectively. Consider `Cc1ccc(OC[C@H]2CCCNC2)c(Oc2c(F)ccc(Cl)c2F)n1` [Example 50, (S)-2-(3-chloro-2,6-difluoro-phenoxy)-6-methyl-3-(piperidin-3-ylmethoxy)-pyridine hydrochloride], for which the figures for the Ki in series [1] and in series [2] were 5.5 nM and 60.3 nM, respectively.
